Assay [1] addresses T1, human orexin-2 receptor (Homo sapiens (Human), UniProt O43614). As to the kind of experiment: FLIPR Ca2+ Flux Assay, CHO cells expressing human orexin-2 receptor. In kind it is cell-based. The conditions noted are these: 70 pM Ala-6,12 orexin-A agonist, read-out: hOX2R FLIPR IC50. The procedure: (§1) The utility of the compounds in accordance with the present invention as orexin receptor OX1R and/or OX2R antagonists may be readily determined without undue experimentation by methodology well known in the art, including the “FLIPR Ca^2+ Flux Assay” (Okumura et al., Biochem. Biophys. Res. Comm. 280:976-981, 2001). In a typical experiment the OX1 and OX2 receptor antagonistic activity of the compounds of the present invention was determined in accordance with the following experimental method. For intracellular calcium measurements, Chinese hamster ovary (CHO) cells expressing the rat orexin-1 receptor or the human orexin-2 receptor, are grown in Iscove's modified DMEM containing 2 mM L-glutamine, […], 1% hypoxanthine-thymidine supplement, 100 U/ml penicillin, 100 ug/ml streptomycin and 10% heat-inactivated fetal calf serum (FCS). The cells are seeded at 20,000 cells/well into Becton-Dickinson black 384-well clear bottom sterile plates coated with poly-D-lysine. All reagents were from GIBCO-Invitrogen Corp. The seeded plates are incubated overnight at 37° C. and 5% CO2. Ala-6,12 human orexin-A as the agonist is prepared as a 1 mM stock solution in 1% bovine serum albumin (BSA) and diluted in assay buffer (HBSS containing 20 mM HEPES, 0.1% BSA and 2.5 mM probenecid, pH7.4) for use in the assay at a final concentration of 70 pM. Test compounds are prepared as 10 mM stock solution in DMSO, then diluted in 384-well plates, first in DMSO, then assay buffer. On the day of the assay, cells are washed 3 times with 100 ul assay buffer and then incubated for 60 min (37° C., 5% CO2) in 60 ul assay buffer containing 1 uM Fluo-4AM ester, 0.02% pluronic acid, and 1% BSA. The dye loading solution is then aspirated and cells are washed 3 times with 100 ul assay buffer. 30 ul of that same buffer is left in each well. Within the Fluorescent Imaging Plate Reader (FLIPR, Molecular Devices), test compounds are added to the plate in a volume of 25 ul, incubated for 5 min and finally 25 ul of agonist is added. Fluorescence is measured for each well at 1 second intervals for 5 minutes and the height of each fluorescence peak is compared to the height of the fluorescence peak induced by 70 pM Ala-6,12 orexin-A with buffer in place of antagonist. […] Alternatively, compound potency can be assessed by a radioligand binding assay (described in Bergman et. al. Bioorg. Med. Chem. Lett. 2008, 18, 1425-1430) in which the inhibition constant (Ki) is determined in membranes prepared from CHO cells expressing either the OX1 or OX2 receptor. The intrinsic orexin receptor antagonist activity of a compound which may be used in the present invention may be determined by these assays.
Background: Calcium flux is commonly read through the fluorescence of an indicator in the cells.

Assay [2] deals with T1, human orexin-2 receptor. As to the kind of experiment: radioligand binding assay, orexin-2 receptor (membranes from CHO cells). The conditions noted are these: CHO cell membranes, read-out: hOX2 hKi. On the procedure: as §1
Assay [3] concerns the target rat orexin-1 receptor (Rattus norvegicus (Rat), UniProt P56718). As to the kind of experiment: FLIPR Ca2+ Flux Assay, CHO cells expressing rat orexin-1 receptor.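 Further: concentration giving 50% inhibition of the agonist-induced calcium response.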 It is filed as cell-based. The conditions noted are these: 70 pM Ala-6,12 orexin-A agonist, read-out: hOX1R FLIPR IC50. On the procedure: as §1
In assay [4] the target is OX1 receptor (hOX1) (Homo sapiens, UniProt O43613). As to the kind of experiment: radioligand binding assay, orexin-1 receptor (membranes from CHO cells). The conditions noted are these: CHO cell membranes, read-out: hOX1 hKi. The procedure:
In a typical experiment the OX1 and OX2 receptor antagonistic activity of the compounds of the present invention was determined in accordance with the following experimental method. For intracellular calcium measurements, Chinese hamster ovary (CHO) cells expressing the rat orexin-1 receptor or the human orexin-2 receptor, are grown in Iscove's modified DMEM containing 2 mM L-glutamine, […], 1% hypoxanthine-thymidine supplement, 100 U/ml penicillin, 100 ug/ml streptomycin and 10% heat-inactivated fetal calf serum (FCS). The cells are seeded at 20,000 cells/well into Becton-Dickinson black 384-well clear bottom sterile plates coated with poly-D-lysine. All reagents were from GIBCO-Invitrogen Corp. The seeded plates are incubated overnight at 37° C. and 5% CO2. Ala-6,12 human orexin-A as the agonist is prepared as a 1 mM stock solution in 1% bovine serum albumin (BSA) and diluted in assay buffer (HBSS containing 20 mM HEPES, 0.1% BSA and 2.5 mM probenecid, pH7.4) for use in the assay at a final concentration of 70 pM. Test compounds are prepared as 10 mM stock solution in DMSO, then diluted in 384-well plates, first in DMSO, then assay buffer. On the day of the assay, cells are washed 3 times with 100 ul assay buffer and then incubated for 60 min (37° C., 5% CO2) in 60 ul assay buffer containing 1 uM Fluo-4AM ester, 0.02% pluronic acid, and 1% BSA. The dye loading solution is then aspirated and cells are washed 3 times with 100 ul assay buffer. 30 ul of that same buffer is left in each well. Within the Fluorescent Imaging Plate Reader (FLIPR, Molecular Devices), test compounds are added to the plate in a volume of 25 ul, incubated for 5 min and finally 25 ul of agonist is added. Fluorescence is measured for each well at 1 second intervals for 5 minutes and the height of each fluorescence peak is compared to the height of the fluorescence peak induced by 70 pM Ala-6,12 orexin-A with buffer in place of antagonist. […] Alternatively, compound potency can be assessed by a radioligand binding assay (described in Bergman et. al. Bioorg. Med. Chem. Lett. 2008, 18, 1425-1430) in which the inhibition constant (Ki) is determined in membranes prepared from CHO cells expressing either the OX1 or OX2 receptor. The intrinsic orexin receptor antagonist activity of a compound which may be used in the present invention may be determined by these assays.

Molecules are shown by their SMILES. pIC50, pKi: −log10 of the molar value.

T1 sequence (O43614 whole entry): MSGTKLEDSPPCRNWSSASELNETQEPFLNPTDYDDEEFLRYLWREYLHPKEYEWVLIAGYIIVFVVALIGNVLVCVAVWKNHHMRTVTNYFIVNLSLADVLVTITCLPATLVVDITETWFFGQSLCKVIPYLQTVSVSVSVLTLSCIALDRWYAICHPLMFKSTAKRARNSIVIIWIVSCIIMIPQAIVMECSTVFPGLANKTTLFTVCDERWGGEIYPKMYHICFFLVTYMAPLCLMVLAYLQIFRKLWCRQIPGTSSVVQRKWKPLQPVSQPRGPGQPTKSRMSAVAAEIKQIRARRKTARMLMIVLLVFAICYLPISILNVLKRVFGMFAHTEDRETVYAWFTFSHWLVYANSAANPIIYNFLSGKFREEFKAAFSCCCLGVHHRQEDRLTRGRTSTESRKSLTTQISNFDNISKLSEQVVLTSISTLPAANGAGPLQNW
rat orexin-1 receptor, sequence (P56718 whole entry): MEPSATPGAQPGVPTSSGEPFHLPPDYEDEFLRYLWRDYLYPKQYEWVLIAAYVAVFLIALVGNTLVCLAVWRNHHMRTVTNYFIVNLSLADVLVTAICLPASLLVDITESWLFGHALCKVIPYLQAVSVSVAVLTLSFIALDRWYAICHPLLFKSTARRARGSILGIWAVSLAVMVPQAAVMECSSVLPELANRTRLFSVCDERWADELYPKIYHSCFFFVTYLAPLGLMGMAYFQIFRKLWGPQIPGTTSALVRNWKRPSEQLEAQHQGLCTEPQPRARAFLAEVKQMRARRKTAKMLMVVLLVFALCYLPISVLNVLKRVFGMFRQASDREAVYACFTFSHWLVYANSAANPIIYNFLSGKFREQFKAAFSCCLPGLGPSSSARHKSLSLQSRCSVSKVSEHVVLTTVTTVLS

`C[C@@H]1CC[C@@H](Oc2cc(C#N)ccn2)CN1C(=O)c1ccc(Cl)cc1-n1nccn1` [Example 7, 2-{[(3R,6R)-1-{[4-chloro-2-(2H-1,2,3-triazol-2-yl)phenyl]carbonyl}-6-methylpiperidin-3-yl]oxy}pyridine-4-carbonitrile]: the negative logarithm of the IC50 (pIC50) (usually the negative decadic logarithm of the IC50, by convention in mol/L) was 7.77 in assay [1] and 5.42 in assay [3]. The pKi in assay [2] was 8.96; in assay [4] it was 6.00.

These data come from patent US20130102619A1, “2-PYRIDYLOXY-4-NITRILE OREXIN RECEPTOR ANTAGONISTS” (priority 2011, published 2013).
